The values below come from article PMC7094737 (Journal of Molecular Biology, 2008).

Positions count from the first letter of the chain named.

Test [1] concerns the target T1, MDO1 (Homo sapiens, UniProt Q9BQ69).
T1 sequence (Q9BQ69 83-325): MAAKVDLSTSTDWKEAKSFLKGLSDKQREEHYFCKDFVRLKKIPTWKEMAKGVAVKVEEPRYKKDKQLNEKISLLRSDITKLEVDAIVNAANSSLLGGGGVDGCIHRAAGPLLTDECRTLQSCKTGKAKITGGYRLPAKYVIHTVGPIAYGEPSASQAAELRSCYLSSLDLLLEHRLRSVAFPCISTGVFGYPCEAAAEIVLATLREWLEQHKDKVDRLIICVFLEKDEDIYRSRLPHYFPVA
The test is classed as binding. As to conditions: MDO1, 500 mM NaCl, data not shown.

For test [2], the target named is T1, MDO1. The test can be described thus: Competition for poly. The test is classed as binding. The conditions noted are these: data not shown.
The target in test [3] is T2, SFV macro (Semliki forest virus, UniProt P08411).
T2 sequence (P08411 1337-1495 limits assumed): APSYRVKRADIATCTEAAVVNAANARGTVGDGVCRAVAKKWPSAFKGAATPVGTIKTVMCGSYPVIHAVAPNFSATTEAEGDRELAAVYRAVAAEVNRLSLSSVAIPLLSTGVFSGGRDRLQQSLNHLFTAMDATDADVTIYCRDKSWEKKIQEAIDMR
Briefly: Competition for poly. It counts as binding. The conditions noted are these: data not shown.

Test [4] concerns the target T3, HEV macro (Hepatitis E virus genotype 1, UniProt P29324).
T3 sequence (P29324 775-960): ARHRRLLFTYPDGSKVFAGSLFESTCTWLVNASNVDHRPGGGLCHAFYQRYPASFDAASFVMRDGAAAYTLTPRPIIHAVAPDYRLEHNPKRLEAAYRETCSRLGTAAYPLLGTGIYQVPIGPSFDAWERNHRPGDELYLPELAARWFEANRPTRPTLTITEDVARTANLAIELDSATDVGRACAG
Briefly: Competition for poly. The test is classed as binding. As to conditions: data not shown.

In test [5] the target is T4, MDO2 (Homo sapiens, UniProt A1Z1Q3).
T4 sequence (A1Z1Q3 1-243): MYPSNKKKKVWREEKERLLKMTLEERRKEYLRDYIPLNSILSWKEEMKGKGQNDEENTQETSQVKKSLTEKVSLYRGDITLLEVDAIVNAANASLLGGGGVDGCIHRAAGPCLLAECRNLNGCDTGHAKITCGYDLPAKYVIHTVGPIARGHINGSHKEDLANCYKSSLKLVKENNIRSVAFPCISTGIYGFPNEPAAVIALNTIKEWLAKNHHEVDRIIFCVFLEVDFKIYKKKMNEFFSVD
Briefly: [32P]poly. The test is classed as binding. As to conditions: to MDO2; Fig. 3c.

Test [6] deals with T5, GDAP2 (Homo sapiens, UniProt Q9NXN4).
T5 sequence (Q9NXN4 1-231 isoform Q9NXN4-2): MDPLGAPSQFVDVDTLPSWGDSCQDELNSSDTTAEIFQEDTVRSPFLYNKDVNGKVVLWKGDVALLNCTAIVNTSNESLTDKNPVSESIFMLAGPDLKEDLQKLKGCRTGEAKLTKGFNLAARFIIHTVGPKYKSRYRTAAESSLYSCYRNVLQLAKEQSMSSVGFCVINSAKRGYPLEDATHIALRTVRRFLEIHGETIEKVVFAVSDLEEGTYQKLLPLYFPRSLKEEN
The test can be described thus: [32P]poly. It counts as binding. The conditions noted are these: to GDAP2; Fig. 3c.

In test [7] the test system is macro domains. Briefly: Filter binding with radioactive NAD+ alone.
Test [8] has as its target T1, MDO1. It counts as binding. As to conditions: to MDO1; Fig. 3b.
The target of test [9] is T4, MDO2. It counts as binding. The conditions noted are these: to MDO2; Fig. 3b.
The target in test [10] is T5, GDAP2. It counts as binding. The conditions noted are these: to GDAP2.
The target in test [11] is T6, Poa1p (Saccharomyces cerevisiae, UniProt P38218, S2A).
T6 sequence (P38218 1-177 S2A): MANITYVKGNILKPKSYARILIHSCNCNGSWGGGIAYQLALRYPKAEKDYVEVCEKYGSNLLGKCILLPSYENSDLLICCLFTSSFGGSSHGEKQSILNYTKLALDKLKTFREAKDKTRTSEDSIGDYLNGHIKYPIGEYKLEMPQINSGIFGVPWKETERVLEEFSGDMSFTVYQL
The test is classed as binding. As to conditions: to Poa1p; Fig. 3b.

Test [12] addresses T7, SFV macro (nsP3) (Semliki forest virus, UniProt P08411).
T7 sequence (P08411 1337-1503 limits assumed): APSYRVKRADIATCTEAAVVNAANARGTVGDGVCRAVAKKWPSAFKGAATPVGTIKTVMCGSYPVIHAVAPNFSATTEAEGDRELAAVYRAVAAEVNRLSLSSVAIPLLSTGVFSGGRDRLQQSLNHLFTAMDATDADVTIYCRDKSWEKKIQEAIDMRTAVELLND
It counts as binding. As to conditions: to SFV macro; Fig. 3b.

Test [13] concerns the target T3, HEV macro. The test is classed as binding. As to conditions: to HEV macro; Fig. 3b.
The target of test [14] is T8, MDO1 G182Y + G270Y (Homo sapiens, UniProt Q9BQ69, G182Y/G270Y).
T8 sequence (Q9BQ69 83-325 G182Y/G270Y): T1 sequence (Q9BQ69 83-325) with G100Y, G188Y
The test is classed as binding. The conditions noted are these: filter washed with 1 M NaCl, not shown.

In test [15] the test system is macro proteins. The test is classed as biochemical.
For test [16], the target named is T1, MDO1. The test can be described thus: ADPR-1″P hydrolysis. The conditions noted are these: by MDO1; Fig. 2, TLC. It counts as biochemical.
Test [17] addresses T4, MDO2. Briefly: ADPR-1″P hydrolysis. As to conditions: by MDO2; Fig. 2, TLC. The test is classed as biochemical.
In test [18] the target is T5, GDAP2. Briefly: ADPR-1″P hydrolysis. The test is classed as biochemical. The conditions noted are these: by GDAP2; Fig. 2, TLC.
The target in test [19] is T7, SFV macro (nsP3). The test can be described thus: ADPR-1″P hydrolysis. The test is classed as biochemical. As to conditions: by SFV nsP3 (167-aa and 328-aa similar); Fig. 2, TLC.
[20] abbreviates: monomeric ADP-ribose 1500-fold excess.
Setting [21] is: molar excess of poly(A) ∼ 400-fold.

With ADP-ribose, the “dissociation constant in high-salt buffer versus standard conditions” value in test [1] is “approximately twofold”. Further, the “competition for the binding of poly(ADP-ribose)” value in [2] (setting [20]), in test [3] (setting [20]) and in [4] (setting [20]) was “no competition” throughout.
For poly(A), the “poly(A) binding (in words)” value is recorded as “did not bind poly(A)” in test [5] and “bound poly(A)” in [6]. Moreover, the “competition for the binding of poly(ADP-ribose)” value in [2] (setting [21]), in test [3] (setting [21]) and in test [4] (setting [21]) was “no competition” each time.
Consider `NC(=O)c1ccc[n+]([C@@H]2O[C@H](COP(=O)([O-])OP(=O)(O)OC[C@H]3O[C@@H](n4cnc5c(N)ncnc54)[C@H](O)[C@@H]3O)[C@@H](O)[C@H]2O)c1` [NAD ^+], for which the “radioactive signal on filter-bound macro domains” value in test [7] is on record as “no radioactive signal”.
For poly(ADP-ribose), the “poly(ADP-ribose) binding (in words)” value in test [8] is “bound poly(ADP-ribose)”; in test [9], “did not show effective binding”; in test [10], “inefficient”; in test [11] it was “did not show effective binding”; in [12], “bound poly(ADP-ribose) effectively”; in test [13], “bound poly(ADP-ribose) effectively”. Besides, the “poly(ADP-ribose) binding after stringent wash” value in test [14] is “did not have an effect on poly(ADP-ribose) binding”. Also, the “poly(ADP-ribose) hydrolysis activity” value in [15] is on record as “None of the macro proteins degraded poly(ADP-ribose)”.
With `Nc1ncnc2c1ncn2[C@@H]1O[C@H](COP(=O)(O)OP(=O)(O)OC[C@H]2O[C@H](OP(=O)(O)O)[C@H](O)[C@@H]2O)[C@@H](O)[C@H]1O` [ADPR-1″P, ADP-ribose-1″ phosphate], the “ADPR-1″P hydrolysis (in words)” value was “equally efficiently as yeast Poa1p” in test [16], “equally efficiently as yeast Poa1p” in test [17], “inactive” in test [18] and “only a minor activity” in test [19].
